Patent publication US11344510B2, “Arylcyclohexylamine derivatives and their use in the treatment of psychiatric disorders” (Gilgamesh Pharmaceuticals, Inc., priority 2019, dated 2022)
“Also recorded” adds a separate entry of the source.

Tests used:
CSDS-susceptible mice = assay: Behavioral tests after chronic social defeat stress (CSDS); type: in vivo, C57BL/6 mice
[1] = biological target: MK-801 binding site of the N-methyl-D-aspartate receptor (NMDAR); assay: NMDAR radioligand binding with [3H]MK-801, Method A; design: species or system Wistar rat; conditions: for Ki: MK-801 site, Method A, Wistar rat brain (minus cerebellum), 5.0 nM [3H]MK-801, read-out: NMDAR Ki ± SEM
Procedure: Radioligand Binding—Method A. Affinity of the test compounds for NMDAR was determined in radioligand binding experiments with [^3H]MK-801 by Eurofins Panlabs, Inc., using methods adapted from the literature (Javitt et al. 1987; Reynolds et al. 1989) and under the conditions described in Table 12.

[2] = HLM stability (High Activity); type: in vitro ADME; conditions: both sexes, human, liver microsomes, pH 7.4, Condition 2 (High Activity), 1.0 mg protein/mL
Procedure: (§1) HLM Stability (High Activity). Pooled HLM from adult male and female donors (XenoTech H0630) were used. Microsomal incubations were carried out in 96-well plates in 5 aliquots of 40 μL, each (one for each time point). Liver microsomal incubation medium consisted of PBS (100 mM, pH 7.4), MgCl2 (3.3 mM), NADPH (3 mM), glucose-6-phosphate (5.3 mM), and glucose-6-phosphate dehydrogenase (0.67 units/mL), with 1.0 mg of liver microsomal protein per mL. Control incubations were performed by replacing the NADPH-cofactor system with PBS. Test compounds (1 μM, final solvent concentration 1.6%) were incubated with microsomes at 37° C., shaking at 100 rpm. Incubations were performed in duplicate. Five time points over 60 minutes were analyzed. The reactions were stopped by adding 12 volumes of 90% acetonitrile-water to incubation aliquots, followed by protein sedimentation by centrifugation at 5500 rpm for 3 minutes. Supernatants were analyzed for parent compound remaining using a fit-for-purpose liquid chromatography-tandem mass spectrometry (LC-MS/MS) method, with authentic samples of each analyte used for identity confirmation.
(§2) Data Analysis. The elimination constant (kel), half-life (t1/2) and intrinsic clearance (Clint) were determined in a plot of […] versus time, using linear regression analysis.

[3] = HLM stability (Low Activity); type: in vitro ADME; conditions: both sexes, human, liver microsomes, pH 7.4, Condition 1 (Low Activity), 0.42 mg protein/mL
Procedure: For some of the compounds, stability was tested under two microsomal incubation conditions, one with normal enzymatic activity (low activity) and one with higher enzymatic loading, longer incubation time, and lower compound concentration (high activity) intended to increase metabolic lability.
as §1, with “Stability (Low” for “Stability (High”, “with 0.42” for “with 1.0”, “compounds (2” for “compounds (1”, “over 40” for “over 60”
as §2

[4] = biological target: T1, dopamine transporter (DAT) (Homo sapiens, UniProt Q01959); assay: Fluorescent substrate uptake inhibition, DAT; type: cell-based; conditions: 10 μM, CHO cells expressing DAT
T1 construct: expressed in transfected cells; host or cells: CHO (uptake)
T1 sequence (Q01959 whole entry, species assumed): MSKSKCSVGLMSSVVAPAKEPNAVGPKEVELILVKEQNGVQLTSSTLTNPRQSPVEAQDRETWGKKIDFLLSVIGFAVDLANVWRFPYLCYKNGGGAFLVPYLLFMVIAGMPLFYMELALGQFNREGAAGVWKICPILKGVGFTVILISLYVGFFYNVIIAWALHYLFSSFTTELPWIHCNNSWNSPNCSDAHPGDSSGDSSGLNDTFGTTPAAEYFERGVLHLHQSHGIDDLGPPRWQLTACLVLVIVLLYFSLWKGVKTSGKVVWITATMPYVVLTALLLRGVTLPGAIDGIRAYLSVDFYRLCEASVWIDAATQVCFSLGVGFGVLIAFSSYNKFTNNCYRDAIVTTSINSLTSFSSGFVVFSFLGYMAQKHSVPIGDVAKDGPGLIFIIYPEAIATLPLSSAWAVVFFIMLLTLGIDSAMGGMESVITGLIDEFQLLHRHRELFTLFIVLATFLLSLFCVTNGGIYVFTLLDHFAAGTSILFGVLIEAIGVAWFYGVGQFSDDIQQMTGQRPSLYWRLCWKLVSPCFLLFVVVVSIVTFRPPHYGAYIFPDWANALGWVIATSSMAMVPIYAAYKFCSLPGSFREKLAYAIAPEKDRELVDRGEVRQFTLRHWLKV

[5] = RLM stability (Low Activity); type: in vitro ADME, Sprague Dawley rats; conditions: male, Sprague Dawley, rat, liver microsomes, pH 7.4, Condition 1 (Low Activity), 0.50 mg protein/mL
In short: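 Pooled male Sprague Dawley rat liver microsomes (0.50 mg/mL) in PBS pH 7.4 with 1 mM MgCl2 and 1 mM NADPH; compound 1 μM, 1.0% solvent, 37° C. Six time points over 60 min, parent remaining by LC-MS/MS; kel, t1/2 and Clint from linear regression of ln(AUC) versus time.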

[6] = tested on: monoamine transporters, MATs (SERT, NET, DAT, VMAT2); assay: Monoamine uptake inhibition, monoamine transporters collectively; type: cell-based; conditions: in words
Procedure: The ability of the compounds of the present invention to inhibit uptake of monoamines by the serotonin transporter (SERT), norepinephrine transporter (NET), dopamine transporter (DAT), and vesicular monoamine transporter 2 (VMAT2) (collectively monoamine transporters, MATs) was measured using fluorescent substrate uptake assays in transfected cells (Table 14). The binding affinities of select compounds were also determined in radioligand displacement assays at SERT, NET, and/or DAT (Table 14).
Uptake Inhibition. The ability of test compounds to block monoamine uptake by SERT, NET, DAT, and VMAT2 was determined using the Neurotransmitter Transporter Uptake Assay Kit manufactured by Molecular Devices (Cat #R8173). Briefly, stably transfected cells expressing the MAT of interest (HEK293 cells for SERT and NET; CHO cells for DAT) were grown and plated into 384-well plates at a concentration of 20,000 cells per well. Plates were then incubated for 16-20 h at 37° C. and 5% CO2. The medium was then aspirated and replaced with 25 μL of assay buffer (20 mM HEPES in HBSS, containing 0.1% BSA) containing the test compounds at the appropriate concentrations. Plates were then centrifuged at 300 rpm for 15 s and then incubated at 37° C. for 30 minutes. At this time, 25 μL of the proprietary fluorescent dye solution was added, the plates were incubated at 37° C. for 60 minutes, and then fluorescence was quantified on a plate reader (excitation wavelength=440 nm, emission wavelength=520 nm). The proprietary dye solution contains a mixture of 1) a fluorescent dye that mimics the endogenous substrates of MATs and is thereby actively transported to the intracellular compartment in the absence of an inhibitor and 2) a masking dye that inhibits the fluorescence of dye 1 in the extracellular compartment. Therefore, the overall fluorescence of the system increases as the fluorescent dye is transported into the cells.

[7] = biological target: T2, norepinephrine transporter (NET) (Homo sapiens, UniProt P23975); assay: Fluorescent substrate uptake inhibition, NET; type: cell-based; conditions: 10 μM, HEK293 cells expressing NET
T2 construct: expressed in transfected cells; host or cells: HEK293
T2 sequence (P23975 whole entry, species assumed): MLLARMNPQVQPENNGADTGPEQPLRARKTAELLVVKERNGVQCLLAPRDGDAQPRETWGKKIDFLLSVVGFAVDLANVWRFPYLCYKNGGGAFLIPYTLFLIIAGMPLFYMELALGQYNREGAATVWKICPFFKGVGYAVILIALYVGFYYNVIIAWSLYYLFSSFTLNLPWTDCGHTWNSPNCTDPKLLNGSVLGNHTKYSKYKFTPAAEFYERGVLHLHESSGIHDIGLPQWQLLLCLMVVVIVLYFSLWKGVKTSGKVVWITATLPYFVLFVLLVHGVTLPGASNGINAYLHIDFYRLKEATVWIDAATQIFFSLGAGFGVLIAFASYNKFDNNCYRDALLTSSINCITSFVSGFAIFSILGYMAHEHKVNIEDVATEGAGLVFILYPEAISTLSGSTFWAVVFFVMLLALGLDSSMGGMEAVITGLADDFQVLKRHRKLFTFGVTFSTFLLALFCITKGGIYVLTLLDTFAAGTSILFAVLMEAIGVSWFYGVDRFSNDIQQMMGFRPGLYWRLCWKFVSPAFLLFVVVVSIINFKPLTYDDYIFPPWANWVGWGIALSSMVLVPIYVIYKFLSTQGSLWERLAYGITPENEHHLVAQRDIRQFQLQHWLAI

[8] = biological target: MK-801 binding site of the N-methyl-D-aspartate receptor (NMDAR); assay: NMDAR radioligand binding with [3H]MK-801, Method B; design: species or system Sprague Dawley rat; conditions: MK-801 site, Method B, male Sprague Dawley rat cortex, 5.0 nM [3H]MK-801; read-out: NMDAR Ki ± SEM
Procedure: Radioligand Binding—Method B. Affinity of the test compounds for NMDAR was determined in radioligand binding experiments with [^3H]MK-801 by WuXi AppTec (Hong Kong) Limited, under the conditions described in Table 13.

[9] = biological target: T3, vesicular monoamine transporter 2 (VMAT2) (Homo sapiens, UniProt Q05940); assay: Fluorescent substrate uptake inhibition, VMAT2; type: cell-based; conditions: 10 μM, transfected cells
T3 construct: expressed in transfected cells
T3 sequence (Q05940 whole entry, species assumed): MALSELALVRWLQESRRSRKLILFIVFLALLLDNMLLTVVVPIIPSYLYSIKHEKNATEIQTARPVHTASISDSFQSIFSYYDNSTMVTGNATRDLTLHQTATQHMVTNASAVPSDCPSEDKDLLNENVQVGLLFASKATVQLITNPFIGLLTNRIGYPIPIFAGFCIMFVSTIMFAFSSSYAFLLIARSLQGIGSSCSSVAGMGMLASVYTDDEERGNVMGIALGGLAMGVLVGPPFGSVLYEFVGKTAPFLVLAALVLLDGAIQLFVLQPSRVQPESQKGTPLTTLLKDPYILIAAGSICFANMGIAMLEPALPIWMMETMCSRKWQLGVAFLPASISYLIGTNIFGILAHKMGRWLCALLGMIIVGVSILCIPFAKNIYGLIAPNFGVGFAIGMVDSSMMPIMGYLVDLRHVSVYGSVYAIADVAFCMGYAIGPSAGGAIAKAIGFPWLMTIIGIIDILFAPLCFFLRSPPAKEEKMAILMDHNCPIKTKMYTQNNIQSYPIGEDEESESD

[10] = biological target: T4, serotonin transporter (SERT) (Homo sapiens, UniProt P31645); assay: Fluorescent substrate uptake inhibition, SERT; type: cell-based; conditions: for inhibition at 10 µM: HEK293 cells expressing SERT
T4 construct: expressed in transfected cells; host or cells: HEK293
T4 sequence (P31645 whole entry, species assumed): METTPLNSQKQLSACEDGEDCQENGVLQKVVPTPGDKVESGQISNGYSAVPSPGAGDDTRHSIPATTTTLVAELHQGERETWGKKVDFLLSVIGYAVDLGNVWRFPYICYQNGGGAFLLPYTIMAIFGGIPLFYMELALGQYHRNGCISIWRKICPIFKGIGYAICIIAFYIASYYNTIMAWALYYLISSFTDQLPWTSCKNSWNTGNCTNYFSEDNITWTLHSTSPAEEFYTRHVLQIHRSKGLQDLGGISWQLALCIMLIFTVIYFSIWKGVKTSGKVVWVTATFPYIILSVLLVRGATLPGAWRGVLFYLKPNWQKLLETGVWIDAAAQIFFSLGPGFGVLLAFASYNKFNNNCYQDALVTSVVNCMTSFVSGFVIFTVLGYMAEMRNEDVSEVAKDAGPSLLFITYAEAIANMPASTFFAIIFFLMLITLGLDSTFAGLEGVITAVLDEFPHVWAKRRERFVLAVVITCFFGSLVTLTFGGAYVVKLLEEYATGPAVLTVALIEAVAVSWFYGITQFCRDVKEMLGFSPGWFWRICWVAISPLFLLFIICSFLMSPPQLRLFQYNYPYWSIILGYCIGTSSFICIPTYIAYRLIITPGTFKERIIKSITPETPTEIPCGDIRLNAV

[11] = HLM stability (Low Activity, Alternative Method); type: in vitro ADME; conditions: both sexes, human, liver microsomes, pH 7.4, Condition 1 column, values marked *: Low Activity, 0.50 mg protein/mL
In short: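 Pooled male and female human liver microsomes (0.50 mg/mL) in 100 mM PBS pH 7.4 with 1 mM MgCl2 and 1 mM NADPH, compound 1 μM (1.0% solvent), 37° C with shaking, six time points over 60 min. Parent remaining measured by LC-MS/MS; kel, t1/2 and Clint from linear regression of ln(AUC) versus time.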

[12] = MLM stability (Low Activity); type: in vitro ADME, CD-1 mice; conditions: male, CD-1, mouse, liver microsomes, pH 7.4, Condition 1 (Low Activity), 0.50 mg protein/mL
In short: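 Pooled male CD-1 mouse liver microsomes (0.50 mg/mL) with 1 μM compound and 1 mM NADPH in 100 mM PBS pH 7.4 with 1 mM MgCl2, 37 °C, six time points over 60 min. Parent remaining by LC-MS/MS; kel, t1/2 and Clint from linear regression of ln(AUC) versus time.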

SERT = biological target: T5, SERT (Homo sapiens, UniProt P31645); assay: SERT radioligand binding with [3H]imipramine
T5 construct: expressed in transfected cells; host or cells: HEK293
T5 sequence (P31645 whole entry, species assumed): as above
Procedure: Radioligand Binding. Affinity of the test compounds for SERT, NET, and DAT was determined in radioligand binding experiments with [^3H]imipramine, [^3]nisoxetine, and [^3H]WIN35,428, respectively, by WuXi AppTec (Hong Kong) Limited, under the conditions described in Table 15.

[13] = 14.4 mg/kg i.p. as hydrogen tartrate salts

## CNC1(c2ccccc2Cl)CCCCC1=O (racemic) [racemic ketamine, reference compound]
CSDS-susceptible mice; 10 mg/kg i.p., single dose
  antidepressant-like activity in behavioral tests after CSDS (TST, FST, SPT): effective

## CCNC1(c2ccccc2)CCCCC1=O (racemic) [Compound 1rac]
[1]
  Ki: 0.3 µM
[2]
  half-life at 1 μM: 4.98 h
  microsomal CLint at 1 μM: 2 µL/min/mg
[3]
  half-life at 2 μM: 2.22 h
  microsomal CLint at 2 μM: 13 µL/min/mg

## CNC1(c2ccccc2I)CCCCC1=O (racemic) [Compound 37rac, 2-(2-Iodophenyl)-2-(methylamino)cyclohexan-1-one]
CSDS-susceptible mice; 10 mg/kg i.p., single dose
  antidepressant-like activity in behavioral tests after CSDS (TST, FST, SPT): not effective
CSDS-susceptible mice; 30 mg/kg i.p., single dose
  antidepressant-like activity in behavioral tests after CSDS (TST, FST, SPT): only partially effective

## CNC1(c2ccc(F)cc2)CCCCC1=O (racemic) [Compound 18rac, 2-(4-fluorophenyl)-2-(methylamino)cyclohexan-1-one]
[4]
  inhibition at 10 µM: 21.4%
[5]
  microsomal CLint at 1 μM: 19.6 µL/min/mg
[6]
  selectivity for NMDAR (over MATs): greater selectivity for NMDAR
[7]
  inhibition at 10 µM: 16%
[8]
  Ki: 4.5 µM
[9]
  inhibition at 10 µM: 20.2%
[10]
  inhibition at 10 µM: 25.2%
[11]
  half-life at 1 μM: > 2.42 h
  microsomal CLint at 1 μM: < 9.6 µL/min/mg
[12]
  microsomal CLint at 1 μM: 13.7 µL/min/mg

## CN[C@]1(c2ccccc2F)CCCCC1=O [Compound 35S, (S)-2-(2-Fluorophenyl)-2-(methylamino)cyclohexan-1-one]
[1]
  Ki: 0.79 ± 0.21 µM
CSDS-susceptible mice; [13]
  antidepressant-like activity in behavioral tests after CSDS (TST, FST, SPT): induced antidepressant-like effects

## CN[C@@]1(c2ccccc2F)CCCCC1=O [Compound 35R, (R)-2-(2-Fluorophenyl)-2-(methylamino)cyclohexan-1-one]
[1]
  Ki: 3.91 ± 0.4 µM
[1]; vs 35S, 35rac, racemic ketamine and R-ketamine
  NMDAR binding, comparison in words: weaker NMDAR binding
CSDS-susceptible mice; [13]
  antidepressant-like activity in behavioral tests after CSDS (TST, FST, SPT): induced antidepressant-like effects; also recorded: more robust and longer lasting

## CC(C)N[C@@]1(c2ccccc2)CCCCC1=O [Compound 28R, (R)-2-(isopropylamino)-2-phenylcyclohexan-1-one]
[4]
  inhibition at 10 µM: 16.5%
[5]
  half-life at 1 μM: 0.438 h
  microsomal CLint at 1 μM: 52.6 µL/min/mg
SERT
  Ki: 8.6 µM
[7]
  inhibition at 10 µM: 11.4%
[8]
  Ki: > 23 µM
[9]
  inhibition at 10 µM: -11.4%
[10]
  IC50: 7.3 µM
  inhibition at 10 µM: 37.2%
[11]
  half-life at 1 μM: 1.16 h
  microsomal CLint at 1 μM: 20 µL/min/mg
[12]
  half-life at 1 μM: 0.188 h
  microsomal CLint at 1 μM: 123 µL/min/mg

## NC1(c2ccccc2Cl)CCCCC1=O (racemic) [Compound 78rac]
[1]
  Ki: 4 µM
[2]
  half-life at 1 μM: 3.03 h
  microsomal CLint at 1 μM: 4 µL/min/mg
[3]
  half-life at 2 μM: 4.28 h
  microsomal CLint at 2 μM: 7 µL/min/mg
